Data on three substances can be found in patent US20050020854A1, “Alkyl(en)ylglycerinether carboxylic acids” (priority 2001, published 2005).

Read-outs that look alike come from different tables or passages of the source.

The data set has as its system mucous membrane (HET-CAM). Briefly: Mucous membrane compatibility, in vitro HET-CAM test, reaction time method. The protocol: Mucous membrane compatibility was evaluated by the in vitro HET-CAM test using the reaction time method (conc. 5% in 2×-distilled water, pH=6).
The mark [1] stands for this setting: conc. 5% in 2×-distilled water, pH=6.

As to Sodium Laureth Sulfate [Texapon ASV], the Evaluation entry is on record as “Moderately” and the “Irritation value Q” value is given as 1.0.

Turning to “mono-C12-glycerol ether carboxylic acid [Example 1]”, under setting [1], the Evaluation result was “Slightly irritating” and the “Irritation value Q” value amounted to 0.76.

With “mono-C12-glycerol ether+4EO ether carboxylic acid [Example 2]”, the “Irritation value Q” value turned out to be 0.00.
